Consider 23 compounds from PubChem BioAssay (NCI).

Each structure is given as a SMILES string.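 Assay format: 96-well plates, 48-hour exposure. TGI marks complete inhibition of growth.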

The subject of the first experiment is UACC-257 melanoma. In words: NCI-60 cell line screen, 48 h.
Compound `O=C(Nn1c(-c2ccccc2)nc2ccccc2c1=O)c1ccc(Cl)cc1` yielded a TGI greater than 100 µM.

As for `CC(=O)c1ccc(N=NN2CCCC2)cc1`, the TGI is greater than 100 µM.

In the case of `Cc1nc2sc3cccc(Cl)c3n2c(=O)c1N=Nc1ccc(Cl)cc1`, the TGI was greater than 100 µM.

Compound `CSC(=O)/C=C1\SS/C(=C\C(=O)SC)S1` registered a TGI of 11.3 µM.

As to `Cn1c(CNc2ccc(-c3n[nH]c(=S)n3C)cc2)n[nH]c1=S`, the TGI was greater than 100 µM.

Turning to `NCCOc1cccc(C2(N3CCCCC3)CCCCC2)c1`, the TGI came to 34 µM.

Regarding `Cc1ccc(N=N/C(=N/NC(=O)c2ccccc2)c2ccc(N(CCC#N)CCC#N)cc2C)cc1`, the TGI was greater than 100 µM.

`CC(N)(CC(O)(C(F)(F)Cl)C(F)(F)Cl)C(=O)O` (centres undefined) gave a TGI greater than 10 µM.

`CCCCCCCCCCCCCCCCCCNc1ccn(C2OC(COP(=O)(O)OCC3OC(n4ccc(N)nc4=O)C(O)C3O)C(O)C2O)c(=O)n1` (centres undefined) came in with a TGI greater than 100 µM.

As for `COc1ccc(CCCCNCc2cccc(CNCCCCc3ccc(OC)cc3)c2)cc1`, the TGI was greater than 19.7 µM.

As to `CC(SC(=S)N1CCOCC1)C(=O)Nc1nnc(-c2ccc(Cl)cc2)o1` (centres undefined), the TGI was greater than 100 µM.

As to `CC(=O)c1ccc(Nc2c3c(nc4ccccc24)CCCC3)cc1`, the TGI is greater than 74 µM.

In turn, `CCN1CCC(O)(c2ccc([N+](=O)[O-])cc2)C(C(=O)c2ccc([N+](=O)[O-])cc2)C1` (centres undefined) showed a TGI of 33.7 µM.

`S=C1Cc2c(-c3ccccc3)cc(-c3cccc(Cl)c3)nc2-c2ccccc2N1` came in with a TGI of 35 µM.

In turn, `N#Cc1sc2nc3ccccc3n2c1N` yielded a TGI greater than 100 µM.

Compound `N#Cc1c(NC(=O)C(F)(F)F)sc2c3c(=O)c4ccccc4c(=O)c=3oc3ccccc3c12` had a TGI of 35.7 µM.

For `Cc1c(C)c2c(c(N)c1C#N)C(=O)N(Cc1ccc(S(N)(=O)=O)cc1)C2=O`, the TGI is greater than 100 µM.

In turn, `CN(NC1=NCCO1)c1ccc2ccccc2c1` returned a TGI greater than 100 µM.

Compound `O=C1CC(O)c2cscc21` (centres undefined) showed a TGI greater than 100 µM.

`COC(=O)/C=C/c1ccc(OP(=O)(O)O)c(OC)c1` displayed a TGI greater than 100 µM.

`COc1ccc(OC)c2sc(N3C(=O)/C(=C/c4cccc(Oc5ccccc5)c4)N=C3c3ccccc3)nc12` showed a TGI greater than 100 µM.

`Cc1cc(O)c(/C=N/C(N)=S)c(=O)o1` showed a TGI greater than 100 µM.

`Cc1[nH]n(-c2nc3c(c(=O)[nH]2)CCCC3)c(=O)c1CCO` displayed a TGI greater than 100 µM.

The next experiment has as its system OVCAR-4 ovarian. The experiment is described as follows: NCI-60 cell line screen, 48 h.
In the case of `O=C(Nn1c(-c2ccccc2)nc2ccccc2c1=O)c1ccc(Cl)cc1`, the TGI is greater than 100 µM.

On to `CC(=O)c1ccc(N=NN2CCCC2)cc1`, for which the TGI was greater than 100 µM.

Compound `Cc1nc2sc3cccc(Cl)c3n2c(=O)c1N=Nc1ccc(Cl)cc1` came in with a TGI greater than 100 µM.

`CSC(=O)/C=C1\SS/C(=C\C(=O)SC)S1` had a TGI greater than 41.2 µM.

As for `Cn1c(CNc2ccc(-c3n[nH]c(=S)n3C)cc2)n[nH]c1=S`, the TGI is greater than 100 µM.

`NCCOc1cccc(C2(N3CCCCC3)CCCCC2)c1` showed a TGI greater than 100 µM.

Consider `Cc1ccc(N=N/C(=N/NC(=O)c2ccccc2)c2ccc(N(CCC#N)CCC#N)cc2C)cc1`, for which the TGI was greater than 100 µM.

Turning to `CC(N)(CC(O)(C(F)(F)Cl)C(F)(F)Cl)C(=O)O` (centres undefined), the TGI is greater than 10 µM.

For `CCCCCCCCCCCCCCCCCCNc1ccn(C2OC(COP(=O)(O)OCC3OC(n4ccc(N)nc4=O)C(O)C3O)C(O)C2O)c(=O)n1` (centres undefined), the TGI was greater than 100 µM.

Take `COc1ccc(CCCCNCc2cccc(CNCCCCc3ccc(OC)cc3)c2)cc1`: the TGI came out at 3.98 µM.

In turn, `CC(SC(=S)N1CCOCC1)C(=O)Nc1nnc(-c2ccc(Cl)cc2)o1` (centres undefined) displayed a TGI greater than 100 µM.

`CC(=O)c1ccc(Nc2c3c(nc4ccccc24)CCCC3)cc1`: the TGI was greater than 100 µM.

Compound `CCN1CCC(O)(c2ccc([N+](=O)[O-])cc2)C(C(=O)c2ccc([N+](=O)[O-])cc2)C1` (centres undefined) displayed a TGI of 83.9 µM.

In turn, `S=C1Cc2c(-c3ccccc3)cc(-c3cccc(Cl)c3)nc2-c2ccccc2N1` showed a TGI of 1.21 µM.

For `N#Cc1sc2nc3ccccc3n2c1N`, the TGI is greater than 100 µM.

In turn, `N#Cc1c(NC(=O)C(F)(F)F)sc2c3c(=O)c4ccccc4c(=O)c=3oc3ccccc3c12` came in with a TGI of 31.2 µM.

`Cc1c(C)c2c(c(N)c1C#N)C(=O)N(Cc1ccc(S(N)(=O)=O)cc1)C2=O` had a TGI greater than 100 µM.

Regarding `CN(NC1=NCCO1)c1ccc2ccccc2c1`, the TGI was greater than 100 µM.

`O=C1CC(O)c2cscc21` (centres undefined) returned a TGI greater than 100 µM.

On to `COC(=O)/C=C/c1ccc(OP(=O)(O)O)c(OC)c1`, for which the TGI was greater than 100 µM.

`COc1ccc(OC)c2sc(N3C(=O)/C(=C/c4cccc(Oc5ccccc5)c4)N=C3c3ccccc3)nc12` displayed a TGI greater than 100 µM.

As to `Cc1cc(O)c(/C=N/C(N)=S)c(=O)o1`, the TGI was greater than 100 µM.

As for `Cc1[nH]n(-c2nc3c(c(=O)[nH]2)CCCC3)c(=O)c1CCO`, the TGI is greater than 100 µM.

A further experiment deals with 786-0 renal. In words: NCI-60 cell line screen, 48 h.
Consider `O=C(Nn1c(-c2ccccc2)nc2ccccc2c1=O)c1ccc(Cl)cc1`, for which the TGI was greater than 100 µM.

For the compound `CC(=O)c1ccc(N=NN2CCCC2)cc1`, the TGI was greater than 100 µM.

Compound `Cc1nc2sc3cccc(Cl)c3n2c(=O)c1N=Nc1ccc(Cl)cc1` gave a TGI greater than 100 µM.

On to `CSC(=O)/C=C1\SS/C(=C\C(=O)SC)S1`, for which the TGI turned out to be 4.03 µM.

Turning to `Cn1c(CNc2ccc(-c3n[nH]c(=S)n3C)cc2)n[nH]c1=S`, the TGI is greater than 100 µM.

Consider `NCCOc1cccc(C2(N3CCCCC3)CCCCC2)c1`, for which the TGI came to 26.1 µM.

Compound `Cc1ccc(N=N/C(=N/NC(=O)c2ccccc2)c2ccc(N(CCC#N)CCC#N)cc2C)cc1` registered a TGI greater than 100 µM.

`CC(N)(CC(O)(C(F)(F)Cl)C(F)(F)Cl)C(=O)O` (centres undefined) yielded a TGI greater than 10 µM.

For the compound `CCCCCCCCCCCCCCCCCCNc1ccn(C2OC(COP(=O)(O)OCC3OC(n4ccc(N)nc4=O)C(O)C3O)C(O)C2O)c(=O)n1` (centres undefined), the TGI is greater than 100 µM.

As to `COc1ccc(CCCCNCc2cccc(CNCCCCc3ccc(OC)cc3)c2)cc1`, the TGI was 4.51 µM.

`CC(SC(=S)N1CCOCC1)C(=O)Nc1nnc(-c2ccc(Cl)cc2)o1` (centres undefined) had a TGI greater than 100 µM.

As to `CC(=O)c1ccc(Nc2c3c(nc4ccccc24)CCCC3)cc1`, the TGI was greater than 100 µM.

`CCN1CCC(O)(c2ccc([N+](=O)[O-])cc2)C(C(=O)c2ccc([N+](=O)[O-])cc2)C1` (centres undefined) registered a TGI of 29.9 µM.

With `S=C1Cc2c(-c3ccccc3)cc(-c3cccc(Cl)c3)nc2-c2ccccc2N1`, the TGI amounted to 2.21 µM.

Take `N#Cc1sc2nc3ccccc3n2c1N`: the TGI is greater than 100 µM.

Compound `N#Cc1c(NC(=O)C(F)(F)F)sc2c3c(=O)c4ccccc4c(=O)c=3oc3ccccc3c12` came in with a TGI of 72.2 µM.

In turn, `Cc1c(C)c2c(c(N)c1C#N)C(=O)N(Cc1ccc(S(N)(=O)=O)cc1)C2=O` gave a TGI greater than 56.5 µM.

As to `CN(NC1=NCCO1)c1ccc2ccccc2c1`, the TGI is greater than 100 µM.

As to `O=C1CC(O)c2cscc21` (centres undefined), the TGI was greater than 100 µM.

Compound `COC(=O)/C=C/c1ccc(OP(=O)(O)O)c(OC)c1` yielded a TGI greater than 100 µM.

As for `COc1ccc(OC)c2sc(N3C(=O)/C(=C/c4cccc(Oc5ccccc5)c4)N=C3c3ccccc3)nc12`, the TGI is greater than 100 µM.

With `Cc1cc(O)c(/C=N/C(N)=S)c(=O)o1`, the TGI was greater than 100 µM.

`Cc1[nH]n(-c2nc3c(c(=O)[nH]2)CCCC3)c(=O)c1CCO` showed a TGI greater than 100 µM.
